Source: patent US9642854B2, “Flavanoid compounds and process for preparation thereof” (Council of Scientific & Industrial Research, priority 2009, dated 2017)
Converted amounts (≈) assume the structure as drawn. Where two headings read alike, the source gives them in different places.

How the values were obtained:
Format in all cases: cell-based, Helicobacter pylori
H. pylori [1] = experiment: Acid stability study (pH ~2.0, 2 h, then MIC/MBC by microbroth dilution); conditions: Helicobacter pylori
Method: Details of experimental protocol are described under Experiment 7. MIC/MBC values were determined by microbroth dilution assay.
A 100 μL stock of CPP-1, NMC-1, NMC-2 and CPP-3 (1-2 mg/mL) was treated with 20-30 μL of 0.12 NHCl to bring the pH of the solution to ^˜2.0, and kept at 25° C. for 2 h (Funatogawa et al., 2004). Such acid-treated samples were then serially diluted (2 fold) with medium in 96-well microtitre plates to determine the MIC and the MBC values by microbroth dilution assay as detailed under Experiment 3.

H. pylori [2] = experiment: Anti H. pylori screening by disc diffusion susceptibility assay; conditions: for Inhibition zone diameter (score): 100 and 200 mg/disc (so in the source)
Method: The discs were impregnated with […] of each of the compounds, dissolved either in ethanol or DMSO, and the zone of inhibition was measured after 72 h of growth under microaerophilic conditions at 37° C. Inhibition zone diameter ranging 10-20 mm was given a score of ^+, 20-30 mm as ^++ and that of >30 mm as ^+++, as obtained employing dose range of […]/disc. The detailed structural information of the molecules is provided under ‘Description of the Compounds’.
Methods and protocols for the determination of inhibition zone diameter are as stated under Experiment 1, and that of MIC values by microbroth dilution assay as in Experiment 3. ‘Nil’ means zone of inhibition below 10 mm.
The anti H. pylori activity of all 16 flavonoid molecules, 2 naturally isolated and 14 synthetic derivatives, was screened by disc diffusion sensitivity assay employing 2 clinical strains HP001 and HP002, and three standard strains ATCC® 700392, 43504 and 49503. A 0.5 mL inoculum (10^8 CFU/mL) for each bacterial strain tested was flooded on freshly prepared Brain Heart Infusion (BHI) agar plates supplemented with 7% FCS, 0.5% IsoVitalex and 0.0025% DENT® and the discs (5 mm diameter) containing different compounds or antibiotics (dissolved either in ethanol or DMSO) were placed on the agar surface. After incubation for 3 days in a microaerophilic atmosphere at 37° C., the diameter of the zone of inhibition was measured (Glupczynsky, 1996; McNulty et al., 2002).

H. pylori [3] = experiment: MIC and MBC by microbroth dilution assay; conditions: Helicobacter pylori
Method: The compounds, serially diluted ([…]) in Muller Hinton broth containing 5% FCS, were incubated in 96-well microtitre plate containing fresh cultures of HP001 (˜5.5×10^6 CFU/mL) or ATCC® 43504 (2.65×10^6 CFU/ml) in a final volume of […]. After 72-h of incubation under microaerophilic condition at 37° C., […] of cultures wherein no growth had been detected were streaked on fresh brain heart infusion agar plates for MBC determination.
In microbroth dilution assay employing one clinical and one standard strain, both the bacteriostatic and the bactericidal values were determined for all four compounds as well as for clarithromycin (Table 4). Two-fold serial dilutions were prepared in 96-well microtitre plate containing a total volume of 0.1 mL Mueller Hinton broth supplemented with 5% FCS. A 3-day old liquid culture was diluted 10 times in Mueller Hinton broth and 0.1 mL of these cultures was inoculated into each well to give a final concentration of ˜10^6 CFU/mL. The plates were incubated for 3 days in a microaerophilic atmosphere at 37° C. Following incubation, the plates were examined visually, and the lowest concentration showing complete inhibition of growth was recorded as the MIC of the respective compound (Hachem et al., 1996). Aliquots (0.1 mL) of 72-h culture in which no growth had been detected were taken from the wells of the above microtitre plates and used to streak on fresh BHI agar plates.

H. pylori [4] = experiment: Time kill kinetic analyses in biphasic culture
H. pylori [5] = experiment: Anti H. pylori spectrum (MIC) by agar dilution method; conditions: Helicobacter pylori; for MIC50: MIC against 50% of the strains of the panel, read-out: MIC50
Method: MIC was determined using agar dilution assay following the CLSI® guidelines. Six clinical isolates and four standard strains were used for this study. Five microlitre of freshly grown 3-day old culture (˜1×10^8 CFU/mL) was streaked in plates containing 2-fold serial dilution of the compounds ranging […], and incubated under microaerophilic condition at 37° C. After 72 h, the plates were inspected visually for absence of growth to assess the MIC values. The experiment was performed in duplicates. MIC50 is defined as the dose (μg/ml) required for killing 50% of the strains.
Plates contained two-fold serial dilutions of the compounds ranging from […]. Five microlitres of 3-day old freshly grown H. pylori culture (^˜10^8 CFU/mL) was inoculated onto drug-containing BHI agar plates supplemented with 7% FCS, 0.5% IsoVitalex and 0.0025% DENT®, which were then incubated for 3 days under microaerophilic condition at 37° C.

[6] = ATCC43504, microbroth dilution, ATCC 43504
[7] = 72 h, panel of 6 clinical isolates and 4 standard strains, read-out: MIC Range
[8] = clinical strain HP001, read-out: MIC
[9] = clinical strain HP002, read-out: MIC
[10] = clinical strain HP003, read-out: MIC
[11] = clinical strain HP004, read-out: MIC
[12] = clinical strain HP005, read-out: MIC
[13] = clinical strain HP006, read-out: MIC
[14] = standard strain 43504, read-out: MIC
[15] = standard strain 43629, read-out: MIC
[16] = standard strain 49503, read-out: MIC
[17] = standard strain 700392, read-out: MIC

Row | Compound | MBC (H. pylori [3]; [6]) [µg/mL] | MIC (H. pylori [3]; [6]) [µg/mL] | MBC (H. pylori [3]; microbroth dilution, HP001) [µg/mL] | MIC (H. pylori [3]; microbroth dilution, HP001) [µg/mL] | MIC (H. pylori [5]; [7]) [µg/mL] | MIC50 (H. pylori [5]) [µg/mL] | MIC (H. pylori [5]; [8]) [µg/mL] | MIC (H. pylori [5]; [9]) [µg/mL] | MIC (H. pylori [5]; [10]) [µg/mL] | MIC (H. pylori [5]; [11]) [µg/mL] | MIC (H. pylori [5]; [12]) [µg/mL] | MIC (H. pylori [5]; [13]) [µg/mL] | MIC (H. pylori [5]; [14]) [µg/mL] | MIC (H. pylori [5]; [15]) [µg/mL] | MIC (H. pylori [5]; [16]) [µg/mL] | MIC (H. pylori [5]; [17]) [µg/mL] | also measured
1 | O=c1cc(-c2ccccc2)oc2cc(OCCCCN3CCCCC3)cc(O)c12 [CPP-3, 5-Hydroxy-2-phenyl-7-(4-piperidin-1-yl-butoxy)-chromen-4-one] | 25 (≈ 63.5 µM) | 12.5 (≈ 31.8 µM) | 25 (≈ 63.5 µM) | 12.5 (≈ 31.8 µM) | 6.25 to 100 (≈ 15.9 to 254 µM) | 12.5 (≈ 31.8 µM) | 25 (≈ 63.5 µM) | 25 (≈ 63.5 µM) | < 12.5 | < 12.5 | < 12.5 | < 12.5 | 12.5 (≈ 31.8 µM) | 100 (≈ 254 µM) | 25 (≈ 63.5 µM) | 25 (≈ 63.5 µM) | MBC (H. pylori [1]; 2 h, pH ~2.0, 2 h, 25° C., 43504, read-out: MBC, Acid treated): < 50000 µg/mL; MIC (H. pylori [1]; 2 h, pH ~2.0, 2 h, 25° C., 43504, read-out: MIC, Acid treated): 50000 µg/mL (≈ 127000 µM); MBC (H. pylori [1]; 2 h, pH ~2.0, 2 h, 25° C., HP001, read-out: MBC, Acid treated): 50000 µg/mL (≈ 127000 µM); MIC (H. pylori [1]; 2 h, pH ~2.0, 2 h, 25° C., HP001, read-out: MIC, Acid treated): 25000 µg/mL (≈ 63500 µM); MBC (H. pylori [1]; not acid treated, 43504, read-out: MBC, Control): 25000 µg/mL (≈ 63500 µM); MIC (H. pylori [1]; not acid treated, 43504, read-out: MIC, Control): 12500 µg/mL (≈ 31800 µM); MBC (H. pylori [1]; not acid treated, HP001, read-out: MBC, Control): 25000 µg/mL (≈ 63500 µM); MIC (H. pylori [1]; not acid treated, HP001, read-out: MIC, Control): 12500 µg/mL (≈ 31800 µM); Inhibition zone diameter (score) (H. pylori [2]; ATCC standard strain 43504, 72 h): ++ (20-30 mm as ^++); Inhibition zone diameter (score) (H. pylori [2]; ATCC standard strain 49503, 72 h): ++ (20-30 mm as ^++); Inhibition zone diameter (score) (H. pylori [2]; ATCC standard strain 700392, 72 h): ++ (20-30 mm as ^++); zone of inhibition at 100 µg/disc (H. pylori [2]; Helicobacter pylori, 72 h, 100 and 200 μg/disc, majority of the strains, read-out: Activity class by inhibition zone diameter): > 30 mm; Inhibition zone diameter (score) (H. pylori [2]; clinical strain HP001, 72 h): ++ (20-30 mm as ^++); Inhibition zone diameter (score) (H. pylori [2]; clinical strain HP002, 72 h): +++ (that of >30 mm as ^+++); time to kill the bacteria totally (H. pylori [4]; ATCC 43504, 50 μg/mL): about 12 h; time to complete killing (H. pylori [4]; ATCC 43504, 2×MIC (clarithromycin 0.08, CPP-1 and NMC-1 12.5, NMC-2 and CPP-3 25 μg/mL)): about 12 h; killing at MIC dose (H. pylori [4]; ATCC 43504, MIC ([…])): no killing potency; killing at MIC dose (1×MIC) (H. pylori [4]; HP001, up to 36 h): could not exert any effect on bactericidal activity; MIC50 (H. pylori [5]; 72 h): ~12.5 µg/mL (≈ 31.8 µM)
2 | CC[C@H]1OC(=O)[C@H](C)[C@@H](O[C@H]2C[C@@](C)(OC)[C@@H](O)[C@H](C)O2)[C@H](C)[C@@H](O[C@@H]2O[C@H](C)C[C@H](N(C)C)[C@H]2O)[C@](C)(OC)C[C@@H](C)C(=O)[C@H](C)[C@@H](O)[C@]1(C)O [Clarithromycin, reference compound] | 0.08 (≈ 0.107 µM) | 0.04 (≈ 0.0535 µM) | 0.04 (≈ 0.0535 µM) | 0.01 (≈ 0.0134 µM) | 0.016 to 0.1 (≈ 0.0214 to 0.134 µM) | 0.032 (≈ 0.0428 µM) | 0.016 (≈ 0.0214 µM) | 0.032 (≈ 0.0428 µM) | < 0.02 | 0.04 (≈ 0.0535 µM) | 0.08 (≈ 0.107 µM) | 0.08 (≈ 0.107 µM) | 0.032 (≈ 0.0428 µM) | 0.1 (≈ 0.134 µM) | 0.016 (≈ 0.0214 µM) | 0.064 (≈ 0.0856 µM) | inhibition zone (H. pylori [2]; strain 43504, 0.04 mg/disc): 20 mm; inhibition zone (H. pylori [2]; strain 49503, 0.005 mg/disc): 15 mm; inhibition zone (H. pylori [2]; strain 700392, 0.4 mg/disc): 28 mm; inhibition zone (H. pylori [2]; strains HP001 and HP002, 0.01 mg/disc): 18 mm; decrease in cell count (H. pylori [4]; HP001, at around 9 h): 1 log; time at which killing/inhibition became evident (H. pylori [4]; HP001, biphasic culture): around 9 h
